≈ marks a conversion by molar mass, not a printed value. Calls of active or inactive are those of the source. No cut-off for these calls is given here.
Key:
[1] = Solubility of the compound in water at pH 7.4; assay type: physicochemical
CDK6/cyclin D1 = CDK6/cyclin D1 (Homo sapiens, UniProt Q00534); assay: Inhibition of CDK6/CyclinD1 (unknown origin) by ADP-Glo assay; assay type: protein-complex assay
[2] = molecular target: Cyclin-dependent kinase 4/cyclin D1 (Homo sapiens, UniProt P11802); assay: Inhibition of CDK4/CyclinD1 (unknown origin) by ADP-Glo assay; assay type: protein-complex assay
[3] = molecular target: Cyclin-dependent kinase 9 (Homo sapiens) (UniProt P50750); assay: Inhibition of CDK9 in human MV4-11 cells assessed as reduction in RNA polymerase 2 phosphorylation at Ser2 residue incubated for 12 hrs by western blot analysis; assay type: cell-based; details: dose 0.1-4 µM
MOLM-13 = assay: Antiproliferative activity against human MOLM-13 cells assessed as reduction in cell viability measured after 72 hrs; assay type: functional, cell-based; details: MOLM-13, 72 h
[4] = molecular target: Mitogen-activated protein kinase kinase kinase 7 (Homo sapiens) (UniProt O43318); assay: Inhibition of wild type partial length human TAK1 (1 to 303 residues) expressed in mammalian expression system at 1 uM by KINOMEscan analysis
[5] = Metabolic stability of the compound in rat plasma at 10 uM measured for 60 mins by LC-MS/MS analysis; assay type: ADME, cell-free; details: 1 h
CDK7/Cyclin H/MNAT1 = CDK7/Cyclin H/MNAT1 (Homo sapiens, UniProt P50613); assay: Inhibition of CDK7/Cyclin H/MAT1 (unknown origin) by ADP-Glo assay; assay type: protein-complex assay
MV4-11 [6] = assay: Induction of apoptosis in human MV4-11 cells assessed as early apoptotic cells at 0.5 uM incubated for 24 hrs by AnnexinV-FITC/PI staining based flow cytometry (reference value: 1.42%); assay type: functional
MV4-11 [7] = assay: Induction of apoptosis in human MV4-11 cells assessed as late apoptotic cells at 0.1 uM incubated for 24 hrs by AnnexinV-FITC/PI staining based flow cytometry (reference value: 5.21%); assay type: functional
[8] = Cytotoxicity against human L02 cells assessed as reduction in cell viability measured after 72 hrs; assay type: toxicity, cell-based
CDK9/cyclin T1 = CDK9/cyclin T1 (Homo sapiens, UniProt P50750); assay: Inhibition of CDK9/CyclinT1 (unknown origin) by ADP-Glo assay; assay type: protein-complex assay
MV4-11 [9] = assay: Induction of apoptosis in human MV4-11 cells assessed as late apoptotic cells at 0.5 uM incubated for 24 hrs by AnnexinV-FITC/PI staining based flow cytometry (reference value: 5.21%); assay type: functional
[10] = Cytotoxicity against human HEK293 cells assessed as reduction in cell viability measured after 72 hrs; assay type: toxicity, cell-based
HepG2 = assay: Antiproliferative activity against human HepG2 cells assessed as reduction in cell viability measured after 72 hrs; assay type: functional, cell-based; details: HepG2, 72 h
[11] = molecular target: Cyclin-dependent kinase 9 (Homo sapiens) (UniProt P50750); assay: Inhibition of CDK9 in human MV4-11 cells assessed as reduction in c-Myc mRNA expression at 0.1 to 2 uM incubated for 12 hrs by qPCR analysis; assay type: cell-based; details: dose 0.1-2 µM
MV4-11 [12] = assay: Induction of cell cycle arrest in human MV4-11 cells assessed as accumulation of cells at S phase at 0.8 uM incubated fo 36 hrs by propidium iodide staining based flow cytometry (reference value: 26.5%); assay type: functional
MV4-11 [13] = assay: Induction of cell cycle arrest in human MV4-11 cells assessed as accumulation of cells at G0/G1 phase at 0.1 uM incubated fo 36 hrs by propidium iodide staining based flow cytometry (reference value: 64%); assay type: functional
MV4-11 [14] = assay: Induction of cell cycle arrest in human MV4-11 cells assessed as accumulation of cells at G2/M phase at 0.8 uM incubated fo 36 hrs by propidium iodide staining based flow cytometry (reference value: 9.5%); assay type: functional
[15] = Toxicity in BALB/c mouse xenografted with human MV4-11 cells assessed as animal's mortality at 7.5 to 15 mg/kg, iv qd; assay type: organism-based; details: in vivo, dose 7.5-15 mg/kg
[16] = molecular target: Cyclin-dependent kinase 7 (Homo sapiens) (UniProt P50613); assay: Inhibition of wild type full length human CDK7 (1 to 344 esidues) expessed in mammalian expression system at 1 uM by KINOMEscan analysis
MV4-11 [17] = assay: Induction of apoptosis in human MV4-11 cells assessed as viable cells at 1 uM incubated for 24 hrs by AnnexinV-FITC/PI staining based flow cytometry (reference value: 93.4%); assay type: functional; details: read-out: Activity
MV4-11 [18] = assay: Induction of cell cycle arrest in human MV4-11 cells assessed as accumulation of cells at G0/G1 phase at 0.4 uM incubated fo 36 hrs by propidium iodide staining based flow cytometry (reference value: 64%); assay type: functional
[19] = molecular target: Cyclin-dependent kinase 9 (Homo sapiens) (UniProt P50750); assay: Inhibition of CDK9 in human MV4-11 cells assessed as reduction in c-Myc protein expression incubated for 12 hrs by western blot analysis; assay type: cell-based; details: dose 0.1-4 µM
MV4-11 [20] = assay: Induction of apoptosis in human MV4-11 cells assessed as necrotic cells at 0.1 uM incubated for 24 hrs by AnnexinV-FITC/PI staining based flow cytometry (reference value: 0%); assay type: functional
MV4-11 [21] = assay: Induction of apoptosis in human MV4-11 cells assessed as early apoptotic cells at 4 uM incubated for 24 hrs by AnnexinV-FITC/PI staining based flow cytometry (reference value: 1.42%); assay type: functional
[22] = molecular target: NUAK family SNF1-like kinase 2 (Homo sapiens) (UniProt Q9H093); assay: Inhibition of wild type partial length human SNARK (22 to 333 residues) expressed in mammalian expression system at 1 uM by KINOMEscan analysis
MV4-11 [23] = assay: Induction of apoptosis in human MV4-11 cells assessed as viable cells at 0.5 uM incubated for 24 hrs by AnnexinV-FITC/PI staining based flow cytometry (reference value: 93.4%); assay type: functional; details: read-out: Activity
MV4-11 [24] = assay: Induction of cell cycle arrest in human MV4-11 cells assessed as accumulation of cells at S phase at 0.1 uM incubated fo 36 hrs by propidium iodide staining based flow cytometry (reference value: 26.5%); assay type: functional
MV4-11 [25] = assay: Induction of cell cycle arrest in human MV4-11 cells assessed as accumulation of cells at S phase at 0.4 uM incubated fo 36 hrs by propidium iodide staining based flow cytometry (reference value: 26.5%); assay type: functional
MV4-11 [26] = assay: Induction of apoptosis in human MV4-11 cells assessed as late apoptotic cells at 1 uM incubated for 24 hrs by AnnexinV-FITC/PI staining based flow cytometry (reference value: 5.21%); assay type: functional
[27] = molecular target: Dual specificity mitogen-activated protein kinase kinase 5 (Homo sapiens) (UniProt Q13163); assay: Inhibition of wild type partial length human MEK5 (98 to 448 residues) expressed in mammalian expression system at 1 uM by KINOMEscan analysis
MV4-11 [28] = assay: Induction of apoptosis in human MV4-11 cells assessed as early apoptotic cells at 1 uM incubated for 24 hrs by AnnexinV-FITC/PI staining based flow cytometry (reference value: 1.42%); assay type: functional
MV4-11 [29] = assay: Induction of apoptosis in human MV4-11 cells assessed as early apoptotic cells at 0.1 uM incubated for 24 hrs by AnnexinV-FITC/PI staining based flow cytometry (reference value: 1.42%); assay type: functional
MV4-11 [30] = assay: Induction of cell cycle arrest in human MV4-11 cells assessed as accumulation of cells at G2/M phase at 0.1 uM incubated fo 36 hrs by propidium iodide staining based flow cytometry (reference value: 9.5%); assay type: functional

Sequence of Cyclin-dependent kinase 9 (Homo sapiens) (P50750 whole entry): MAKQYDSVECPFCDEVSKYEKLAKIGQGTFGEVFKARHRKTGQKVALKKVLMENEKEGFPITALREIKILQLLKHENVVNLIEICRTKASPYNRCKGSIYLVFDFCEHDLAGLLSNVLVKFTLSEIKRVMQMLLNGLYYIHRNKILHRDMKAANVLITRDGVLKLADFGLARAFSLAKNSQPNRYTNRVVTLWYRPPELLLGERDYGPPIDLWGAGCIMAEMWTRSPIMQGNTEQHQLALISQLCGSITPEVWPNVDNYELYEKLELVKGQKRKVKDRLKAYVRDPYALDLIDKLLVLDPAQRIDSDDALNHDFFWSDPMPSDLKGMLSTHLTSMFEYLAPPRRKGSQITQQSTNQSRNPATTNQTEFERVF
Sequence of Mitogen-activated protein kinase kinase kinase 7 (Homo sapiens) (O43318 whole entry, the tested form may be a part): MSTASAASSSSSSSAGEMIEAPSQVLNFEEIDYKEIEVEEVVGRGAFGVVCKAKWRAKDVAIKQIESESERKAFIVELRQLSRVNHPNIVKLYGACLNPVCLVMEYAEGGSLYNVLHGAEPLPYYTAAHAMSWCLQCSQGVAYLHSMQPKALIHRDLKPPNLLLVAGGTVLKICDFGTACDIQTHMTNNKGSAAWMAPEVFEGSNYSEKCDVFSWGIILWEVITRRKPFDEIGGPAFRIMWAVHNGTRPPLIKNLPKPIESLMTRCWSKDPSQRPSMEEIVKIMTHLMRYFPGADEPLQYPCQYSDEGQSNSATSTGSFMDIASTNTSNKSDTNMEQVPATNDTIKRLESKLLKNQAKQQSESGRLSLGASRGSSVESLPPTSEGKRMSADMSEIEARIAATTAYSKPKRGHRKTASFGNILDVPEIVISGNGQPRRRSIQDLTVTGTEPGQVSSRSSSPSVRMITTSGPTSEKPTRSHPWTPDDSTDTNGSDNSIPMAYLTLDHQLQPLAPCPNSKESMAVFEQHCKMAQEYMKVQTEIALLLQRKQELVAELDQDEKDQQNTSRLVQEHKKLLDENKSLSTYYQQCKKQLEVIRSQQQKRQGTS
Sequence of Cyclin-dependent kinase 4/cyclin D1 (P11802 whole entry): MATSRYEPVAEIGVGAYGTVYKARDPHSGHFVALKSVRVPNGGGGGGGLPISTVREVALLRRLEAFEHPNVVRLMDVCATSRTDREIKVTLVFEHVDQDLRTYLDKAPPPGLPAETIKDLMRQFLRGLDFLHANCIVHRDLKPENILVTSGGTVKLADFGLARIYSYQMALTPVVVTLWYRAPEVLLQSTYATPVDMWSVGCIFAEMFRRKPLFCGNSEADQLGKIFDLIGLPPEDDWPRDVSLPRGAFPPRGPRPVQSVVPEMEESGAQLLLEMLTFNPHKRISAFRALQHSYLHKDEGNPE
Sequence of Cyclin-dependent kinase 4/cyclin D1 (P24385 whole entry, further chain): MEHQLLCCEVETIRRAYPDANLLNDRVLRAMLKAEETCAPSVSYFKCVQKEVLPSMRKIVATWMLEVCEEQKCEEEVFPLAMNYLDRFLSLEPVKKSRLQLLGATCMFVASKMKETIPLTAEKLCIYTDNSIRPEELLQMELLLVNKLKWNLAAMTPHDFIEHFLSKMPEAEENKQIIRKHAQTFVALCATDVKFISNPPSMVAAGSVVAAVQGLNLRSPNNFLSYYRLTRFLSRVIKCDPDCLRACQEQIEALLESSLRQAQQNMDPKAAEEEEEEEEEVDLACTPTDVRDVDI
Sequence of CDK9/cyclin T1 (O60563 whole entry): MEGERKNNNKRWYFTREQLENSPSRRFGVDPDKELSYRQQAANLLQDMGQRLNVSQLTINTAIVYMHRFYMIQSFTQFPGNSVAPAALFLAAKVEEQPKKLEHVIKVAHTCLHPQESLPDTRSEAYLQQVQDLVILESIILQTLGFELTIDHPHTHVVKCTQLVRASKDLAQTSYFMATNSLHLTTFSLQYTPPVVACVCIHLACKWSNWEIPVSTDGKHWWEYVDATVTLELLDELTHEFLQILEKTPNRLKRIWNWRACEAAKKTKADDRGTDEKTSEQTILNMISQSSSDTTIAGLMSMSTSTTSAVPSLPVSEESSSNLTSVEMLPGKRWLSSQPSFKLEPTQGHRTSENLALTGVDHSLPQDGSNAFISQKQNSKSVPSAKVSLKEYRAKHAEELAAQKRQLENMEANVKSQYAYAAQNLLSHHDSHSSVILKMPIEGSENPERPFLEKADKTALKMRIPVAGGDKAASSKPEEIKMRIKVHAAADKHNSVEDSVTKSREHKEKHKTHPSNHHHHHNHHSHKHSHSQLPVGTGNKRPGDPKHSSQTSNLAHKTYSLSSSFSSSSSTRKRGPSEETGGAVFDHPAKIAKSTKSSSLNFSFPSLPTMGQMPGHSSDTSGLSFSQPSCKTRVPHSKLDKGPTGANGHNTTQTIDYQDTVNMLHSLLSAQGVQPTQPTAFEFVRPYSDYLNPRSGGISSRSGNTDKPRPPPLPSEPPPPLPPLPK
Sequence of CDK9/cyclin T1 (P50750 whole entry): as the sequence (P50750 whole entry) above
Sequence of Cyclin-dependent kinase 7 (Homo sapiens) (P50613 whole entry): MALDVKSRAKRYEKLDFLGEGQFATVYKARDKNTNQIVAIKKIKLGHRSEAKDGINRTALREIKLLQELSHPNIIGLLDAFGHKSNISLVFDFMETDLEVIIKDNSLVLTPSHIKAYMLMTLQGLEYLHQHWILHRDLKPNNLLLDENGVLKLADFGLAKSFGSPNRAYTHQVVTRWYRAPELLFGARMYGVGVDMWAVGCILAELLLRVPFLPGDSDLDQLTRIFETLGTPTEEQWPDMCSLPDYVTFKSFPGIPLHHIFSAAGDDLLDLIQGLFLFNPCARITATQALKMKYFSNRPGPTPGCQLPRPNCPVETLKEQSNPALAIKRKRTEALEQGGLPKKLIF
Sequence of NUAK family SNF1-like kinase 2 (Homo sapiens) (Q9H093 whole entry, the tested form may be a part): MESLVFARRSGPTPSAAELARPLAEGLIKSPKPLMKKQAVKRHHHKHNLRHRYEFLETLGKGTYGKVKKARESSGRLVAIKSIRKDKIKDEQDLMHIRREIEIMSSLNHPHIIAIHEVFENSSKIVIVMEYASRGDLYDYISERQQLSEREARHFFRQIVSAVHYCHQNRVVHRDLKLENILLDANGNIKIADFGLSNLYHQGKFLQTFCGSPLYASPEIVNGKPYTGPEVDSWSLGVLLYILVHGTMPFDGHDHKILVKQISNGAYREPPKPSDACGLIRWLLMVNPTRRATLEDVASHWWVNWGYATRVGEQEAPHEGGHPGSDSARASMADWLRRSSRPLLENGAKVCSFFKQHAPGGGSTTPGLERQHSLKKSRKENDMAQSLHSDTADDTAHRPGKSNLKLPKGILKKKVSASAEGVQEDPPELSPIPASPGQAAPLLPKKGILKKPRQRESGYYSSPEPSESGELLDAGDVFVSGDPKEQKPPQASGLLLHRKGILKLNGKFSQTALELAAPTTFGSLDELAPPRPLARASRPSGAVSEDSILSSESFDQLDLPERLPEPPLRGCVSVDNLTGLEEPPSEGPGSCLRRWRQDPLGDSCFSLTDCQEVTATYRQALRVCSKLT
Sequence of CDK6/cyclin D1 (P24385 whole entry): as the sequence (P24385 whole entry, further chain) above
Sequence of CDK6/cyclin D1 (Q00534 whole entry): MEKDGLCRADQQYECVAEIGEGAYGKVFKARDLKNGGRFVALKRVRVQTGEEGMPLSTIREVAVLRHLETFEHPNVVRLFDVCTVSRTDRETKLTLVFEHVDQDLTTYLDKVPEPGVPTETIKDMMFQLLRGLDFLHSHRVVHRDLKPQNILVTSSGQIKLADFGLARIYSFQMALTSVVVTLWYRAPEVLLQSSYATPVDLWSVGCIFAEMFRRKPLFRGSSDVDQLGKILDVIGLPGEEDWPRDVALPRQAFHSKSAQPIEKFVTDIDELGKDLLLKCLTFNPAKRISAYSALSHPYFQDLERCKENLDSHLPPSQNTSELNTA
Sequence of Dual specificity mitogen-activated protein kinase kinase 5 (Homo sapiens) (Q13163 whole entry, the tested form may be a part): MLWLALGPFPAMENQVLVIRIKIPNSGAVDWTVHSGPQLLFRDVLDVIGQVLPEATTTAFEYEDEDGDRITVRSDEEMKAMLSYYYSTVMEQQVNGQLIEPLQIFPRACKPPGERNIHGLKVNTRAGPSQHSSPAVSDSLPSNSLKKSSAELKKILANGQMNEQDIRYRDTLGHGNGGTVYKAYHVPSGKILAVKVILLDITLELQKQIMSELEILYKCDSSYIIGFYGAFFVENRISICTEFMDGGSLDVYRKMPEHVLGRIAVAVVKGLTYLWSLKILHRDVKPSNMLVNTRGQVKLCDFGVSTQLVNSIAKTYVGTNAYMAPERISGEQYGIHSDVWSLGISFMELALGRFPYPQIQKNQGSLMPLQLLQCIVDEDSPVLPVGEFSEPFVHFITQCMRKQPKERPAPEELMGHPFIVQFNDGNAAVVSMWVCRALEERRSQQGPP

Which results are given for `COc1cc(O)c2c(=O)cc(-c3ccc(N4CCN(C)CC4)cc3)oc2c1C1=CCN(C)CC1`?
solubility [1]: 0.12 mg/mL (≈ 260 µM); IC50 (CDK6/cyclin D1): 0.589 µM; IC50 [2]: 0.053 µM; inhibition [3]: Dose-Dependent Effect; IC50 (MOLM-13): 0.16 µM; inhibition [4]: 9.5%; Stability [5]: Stable; IC50 (CDK7/Cyclin H/MNAT1): 0.536 µM; Activity (MV4-11 [6]): 1.96%; Activity (MV4-11 [7]): 6.98%; IC50 at 72 h [8]: 10.6 µM; IC50 (CDK9/cyclin T1): 0.0067 µM; Activity (MV4-11 [9]): 10.2%; IC50 at 72 h [10]: 10.7 µM; IC50 (HepG2): 0.41 µM; inhibition [11]: Active; Activity (MV4-11 [12]): 10.8%; Activity (MV4-11 [13]): 70.5%; Activity (MV4-11 [14]): 5%; Activity [15]: Non-Toxic; inhibition [16]: 4.8%; viability at 1 µM (MV4-11 [17]): 69.1%; Activity (MV4-11 [18]): 81.2%; inhibition [19]: Dose-Dependent Effect; Activity (MV4-11 [20]): 0.02%; Activity (MV4-11 [21]): 70.3%; inhibition [22]: 6.2%; viability at 0.5 µM (MV4-11 [23]): 87.8%; Activity (MV4-11 [24]): 21%; Activity (MV4-11 [25]): 12.8%; Activity (MV4-11 [26]): 20.9%; inhibition [27]: 0%; Activity (MV4-11 [28]): 9.95%; Activity (MV4-11 [29]): 1.46%; Activity (MV4-11 [30]): 8.5%

— ChEMBL document CHEMBL5634084, “Design and optimization of selective and potent CDK9 inhibitors with flavonoid scaffold for the treatment of acute myeloid leukemia” (Eur J Med Chem, 2023)
